Experimental data reported in the NIST ThermoML archive (doi:10.1016/j.jct.2006.07.025).
Values joined by “and” are separate entries in the source; they are usually repeats but may differ in a detail not shown here. Identical values can stand only once. ± gives the expanded uncertainty stated by the source.

What was measured:
[1] = for surface tension liquid-gas: Pendant drop shape; for mass density: 101 kPa, Liquid, Vibrating tube method
[2] = xn = mol fraction of the nth substance listed; details: x1 = 1; for surface tension liquid-gas: Pendant drop shape; for mass density: 101 kPa, Liquid, Vibrating tube method

Q: What does the source list for `Cc1ccc(C)c(C)c1` [1,2,4-trimethylbenzene]?
A: surface tension liquid-gas ([1]; 298.15 K): 29.17 ± 0.33 mN/m; mass density ([1]; 298.15 K): 871.66 ± 0.19 kg/m3; surface tension liquid-gas ([1]; 303.15 K): 28.67 ± 0.32 mN/m; mass density ([1]; 303.15 K): 867.61 ± 0.19 kg/m3; surface tension liquid-gas ([1]; 308.15 K): 28.17 ± 0.32 mN/m; mass density ([1]; 308.15 K): 863.59 ± 0.19 kg/m3; surface tension liquid-gas ([1]; 313.15 K): 27.67 ± 0.31 mN/m; mass density ([1]; 313.15 K): 859.54 ± 0.19 kg/m3

Q: For `Cc1cc(C)cc(C)c1` [1,3,5-trimethylbenzene], which surface tension liquid-gas ([1]; 298.15 K) is on record?
A: 28.09 ± 0.31 mN/m

Q: What about the mass density ([1]; 298.15 K) of the same compound?
A: 861.04 ± 0.18 kg/m3

Q: What about the surface tension liquid-gas ([1]; 303.15 K) of the same compound?
A: 27.67 ± 0.31 mN/m

Q: And the mass density ([1]; 303.15 K)?
A: 856.96 ± 0.18 kg/m3

Q: What about the surface tension liquid-gas ([1]; 308.15 K) of the same compound?
A: 27.24 ± 0.3 mN/m

Q: What about the mass density ([1]; 308.15 K) of the same compound?
A: 852.84 ± 0.18 kg/m3

Q: What about the surface tension liquid-gas ([1]; 313.15 K) of the same compound?
A: 26.82 ± 0.3 mN/m

Q: And the mass density ([1]; 313.15 K)?
A: 848.74 ± 0.18 kg/m3

Q: With `CCCCOC(C)=O` [butyl ethanoate] as the compound, how does the surface tension liquid-gas ([1]; 298.15 K) read?
A: 24.89 ± 0.27 mN/m

Q: What about the mass density ([1]; 298.15 K) of the same compound?
A: 876.18 ± 0.14 kg/m3

Q: And the surface tension liquid-gas ([1]; 303.15 K)?
A: 24.35 ± 0.27 mN/m

Q: What about the mass density ([1]; 303.15 K) of the same compound?
A: 871.31 ± 0.14 kg/m3

Q: What about the surface tension liquid-gas ([1]; 308.15 K) of the same compound?
A: 23.82 ± 0.27 mN/m

Q: What about the mass density ([1]; 308.15 K) of the same compound?
A: 866.24 ± 0.14 kg/m3

Q: And the surface tension liquid-gas ([1]; 313.15 K)?
A: 23.28 ± 0.26 mN/m

Q: What about the mass density ([1]; 313.15 K) of the same compound?
A: 861.57 ± 0.14 kg/m3

Q: Which surface tension liquid-gas ([2]; 298.15 K) does the source give for `CCCCOC(C)=O` [butyl ethanoate] + Cc1cc(C)cc(C)c1 here?
A: 24.89 ± 0.27 mN/m

Q: What about the mass density ([2]; 298.15 K) of the same compound?
A: 876.18 ± 0.14 kg/m3

Q: What about the surface tension liquid-gas ([2]; 303.15 K) of the same compound?
A: 24.35 ± 0.27 mN/m

Q: What about the mass density ([2]; 303.15 K) of the same compound?
A: 871.31 ± 0.14 kg/m3

Q: And the surface tension liquid-gas ([2]; 308.15 K)?
A: 23.82 ± 0.27 mN/m

Q: What about the mass density ([2]; 308.15 K) of the same compound?
A: 866.24 ± 0.14 kg/m3

Q: What about the surface tension liquid-gas ([2]; 313.15 K) of the same compound?
A: 23.28 ± 0.26 mN/m

Q: And the mass density ([2]; 313.15 K)?
A: 861.57 ± 0.14 kg/m3

Q: For `CCCCOC(C)=O` [butyl ethanoate] + Cc1ccc(C)c(C)c1, which surface tension liquid-gas ([2]; 298.15 K) is on record?
A: 24.89 ± 0.27 mN/m

Q: And the mass density ([2]; 298.15 K)?
A: 876.18 ± 0.14 kg/m3

Q: And the surface tension liquid-gas ([2]; 303.15 K)?
A: 24.35 ± 0.27 mN/m

Q: And the mass density ([2]; 303.15 K)?
A: 871.31 ± 0.14 kg/m3

Q: And the surface tension liquid-gas ([2]; 308.15 K)?
A: 23.82 ± 0.27 mN/m

Q: And the mass density ([2]; 308.15 K)?
A: 866.24 ± 0.14 kg/m3

Q: What about the surface tension liquid-gas ([2]; 313.15 K) of the same compound?
A: 23.28 ± 0.26 mN/m

Q: And the mass density ([2]; 313.15 K)?
A: 861.57 ± 0.14 kg/m3

Q: For `CCCOC(C)=O` [propyl ethanoate], which surface tension liquid-gas ([1]; 298.15 K) is on record?
A: 23.99 ± 0.27 mN/m

Q: And the mass density ([1]; 298.15 K)?
A: 882.64 ± 0.15 kg/m3

Q: And the surface tension liquid-gas ([1]; 303.15 K)?
A: 23.36 ± 0.26 mN/m and 23.35 ± 0.26 mN/m

Q: What about the mass density ([1]; 303.15 K) of the same compound?
A: 876.99 ± 0.15 kg/m3

Q: What about the surface tension liquid-gas ([1]; 308.15 K) of the same compound?
A: 22.73 ± 0.26 mN/m

Q: And the mass density ([1]; 308.15 K)?
A: 871.33 ± 0.15 kg/m3

Q: What about the surface tension liquid-gas ([1]; 313.15 K) of the same compound?
A: 22.1 ± 0.3 mN/m

Q: What about the mass density ([1]; 313.15 K) of the same compound?
A: 865.68 ± 0.15 kg/m3

Q: What does the source list for `CCCOC(C)=O` [propyl ethanoate] + Cc1cc(C)cc(C)c1?
A: surface tension liquid-gas ([2]; 298.15 K): 23.99 ± 0.27 mN/m; mass density ([2]; 298.15 K): 882.64 ± 0.15 kg/m3; surface tension liquid-gas ([2]; 303.15 K): 23.35 ± 0.26 mN/m; mass density ([2]; 303.15 K): 876.99 ± 0.15 kg/m3; surface tension liquid-gas ([2]; 308.15 K): 22.73 ± 0.26 mN/m; mass density ([2]; 308.15 K): 871.33 ± 0.15 kg/m3; surface tension liquid-gas ([2]; 313.15 K): 22.1 ± 0.25 mN/m; mass density ([2]; 313.15 K): 865.68 ± 0.15 kg/m3

Q: Which results are given for `CCCOC(C)=O` [propyl ethanoate] + Cc1ccc(C)c(C)c1?
A: surface tension liquid-gas ([2]; 298.15 K): 23.99 ± 0.27 mN/m; mass density ([2]; 298.15 K): 882.64 ± 0.15 kg/m3; surface tension liquid-gas ([2]; 303.15 K): 23.36 ± 0.26 mN/m; mass density ([2]; 303.15 K): 876.99 ± 0.15 kg/m3; surface tension liquid-gas ([2]; 308.15 K): 22.73 ± 0.26 mN/m; mass density ([2]; 308.15 K): 871.33 ± 0.15 kg/m3; surface tension liquid-gas ([2]; 313.15 K): 22.1 ± 0.3 mN/m; mass density ([2]; 313.15 K): 865.68 ± 0.15 kg/m3
